Laboratory results taken from US20120237614A1, “PEPTIDE ABLE TO DISRUPT THE PROTEIN COMPLEX BETWEEN THE HIS273 MUTADED P53 PROTEIN AND THE ONCOSUPPRESSIVE P73 PROTEIN IN TUMOR CELLS AND THERAPEUTIC USES THEREOF” (priority 2009, published 2012).
“Also recorded” adds a separate entry of the source.

Legend:
[1] = molecular target: GST-p53 His175 (Homo sapiens, UniProt P04637, R175H); test: Dot immunobinding test with purified GST-p53 fusion proteins; type: binding; conditions: 20 μg GST fusion purified proteins
Description: (A) Total extracts deriving from SKBR3, (His-175) HT29, (His-273) and H1299 (p53 free) tumour cells have been incubated (1 mg) on SIMP1 and SIMPIKO peptide labelled nitrocellulose membrane and Dot Blot analysed. In (B) the membranes have been incubated with 20 μg of wild type WT GST-p53 purified protein or GST-p53 His-175, GST-p53-His-175, 74-298 or GST alone. In both experiments dots have been detected by labelling the membranes with anti-p53 (DO1) antibody
Nitrocellulose membranes have been cut, washed with water and blotted on the paper filters. The peptides at 250 mM concentration have been transferred on membrane. Labelled membrane has been washed for 10 min. with TBST buffer (10 mM Tris-HCl pH 7.4, 150 mM NaCl, 0.05% (v/v) Tween-20) and then blocked for 45 min with TBST/5% milk. Then the membranes have been incubated for 6 hours at 4° C. in shaker with 1 mg of total protein extract or 20 μg of GST fusion purified proteins. Successively the membranes have been washed with TBST buffer and decorated with anti-p53 antibody (DO1) as a primary antibody. As secondary antibody horse peroxidase conjugated goat antibody has been used. Immunolabelled lanes have been detected using chemiluminescence analysis (Pierce).
The membranes decorated with SIMP peptides also have been incubated with GST-p53 His175, GST p53His74-298, GST WTp53 fusion proteins, GST control.

[2] = molecular target: T1, m-p53His-273/p73 complex (Homo sapiens, UniProt P04637, R273H); test: Coprecipitation (immunoprecipitation) test of the m-p53/p73 complex in MDA-MB-468 cells; type: cell-based; conditions: His-273 mutation, peptide 20 μM, anti-p73 immunoprecipitation
T1 construct: Total cellular lysates (1 mg), have been immunoprecipitated with antibodies directed against p73; endogenous in cells; host or cells: MDA-MB-468
Description: (§1) (A) MDA-MB-468 (5×10^5) cells have been transfected using a lipofectamine containing mixture, βgal expression vector, which normalizes transfection efficiency, and SIMPI peptide (20 μM). Total cellular lysates (1 mg), have been immunoprecipitated with antibodies directed against p73 and immunoglobulins (IgG). Immunoprecipitates and an aliquot (50 μg) of total lysate after 12% acrylamide gel electrophoretic run have been transferred on nitrocellulose membrane and labelled with antibodies shown in the figure. (B) MDA-MB-468 cells, have been transfected using SIMP1 and SIMP5,6. peptides. Successively, cells have been washed and stimulated with 3 μM Adriamycin. Total obtained lysates (30 μg) have been assayed for the expression of PARP and BAX apoptotic proteins. Lysate has been normalized by assaying γ-tubulin expression. (C-D). Transactivation tests have been carried out by transient transfection of H1299 cells using a mixture containing lipofectamine, SIMP1, SIMP5,6 indicated plasmids (20 μM each) together with pLUC-BAX reporter vector. To each reaction mixture an equal amount of […] expression vector was added, in order to normalize the transfection efficiency.
The cell extracts have been processed in a lysis buffer containing 50 mm Tris HCl pH 8, 100 mM NaCl, 10% glycerol, 1% Triton X-100, 1 mM EDTA, 100 mM NaF, MgCl2, 1 mM PMSF, protease and phosphatase inhibitors. Then extracts have been sonicated and centrifuged at 14.000 rpm for 10 min for the debris removal.
50 μg of solubilised proteins have been separated by electrophoresis on 10 or 15% SDS-polyacrylamide gel. Western blot analysis has been carried out using anti-p53 primary antibodies (DO1 Calbiochem), rabbit anti-PARP, rabbit polyclonal anti-Bax, anti-p21 and anti-tubulin monoclonal antibodies (Calbiochem). […] Immunolabelled lanes have been detected using chemiluminescence analysis (Pierce). […]
In order to evaluate the activity of SIMPI peptide and SIMP1KO and SIMP1M derivatives the ability in disrupting the oncogenic m-p53His-273/p73 complex has been analysed.

[3] = system: MDA-MB468 breast and HT29 colon carcinoma cell lines; test: Cell viability / proliferation assays after peptide transfection; type: cell-based, human; conditions: peptide transfected cells
Description: (§2) (A) In order to verify the SIMPI peptide specificity, independently from the cellular context, we tested SIMP1 peptides in some Adriamicyn treated colon carcinoma HT29 (His-273). cell lines. The cells have been transfected using a mixture containing lipofectamine, pLUC-BAX plasmid, β-galactosidase expression vector, SIMP1 and SIMP5M control peptides. 24 hours post-transfection, have been treated with 3 μM Adriamicyn. (B-C). Viability and inhibition assays have been carried out after transfection using SIMP1 and SIMP5M peptides in HT29 (colon cancer) and MDA-MB-468 (breast cancer) cell lines
Cell viability has been tested using Trypan Blue exclusion assays.
We observed a reduction of cell proliferation in MDA-MB468 breast and HT29 colon carcinoma cell lines.

[4] = system: tumour cell lines containing His-175 or His-273 p53 mutation; test: Summary of activity by p53 mutation type; type: cell-based; conditions: FIG. 6 summary
Description: SIMP1M: FQQSSTARSATW (SEQ ID NO:16) (MW: 1369, PI: 9.75) peptide is a mutated version of SIMP1 peptide wherein K138 residue has been replaced by Arginine.
FIG. 6 that SIMP peptides and by-products thereof displace protein complexes involving mutated protein p53 and p73.

[5] = system: MDA-MB-468 cells; test: Apoptotic tests (PARP and BAX expression, Western blot) after Adriamycin; type: cell-based, human; conditions: MDA-MB-468, 3 μM Adriamycin
Description: as §1
50 μg of solubilised proteins have been separated by electrophoresis on 10 or 15% SDS-polyacrylamide gel. Western blot analysis has been carried out using anti-p53 primary antibodies (DO1 Calbiochem), rabbit anti-PARP, rabbit polyclonal anti-Bax, anti-p21 and anti-tubulin monoclonal antibodies (Calbiochem). Goat anti-mouse and goat anti-rabbit horse peroxidase conjugated secondary antibodies (Amersham) have been used for the expression analyses. Immunolabelled lanes have been detected using chemiluminescence analysis (Pierce).
To this end cell viability and apoptotic tests (FIG. 1B, FIG. 4 B-C) on MDA-MB468 breast carcinoma have been carried out.

[6] = system: HT29 (His-273) colon carcinoma cells; test: Transactivation test (pLUC-BAX) in Adriamycin treated HT29 cells; type: cell-based, human; conditions: 3 μM Adriamycin
Description: as §2
SKBR3, HT-29, MDA-MB-468 cell lines have been transfected with Lipofectamine 2000 according to the supplier instructions (InVitrogen).
Cells (1.5×10^5) have been transiently transfected using SIMP peptides, expression plasmids and reporter constructs as internal controls for transfection efficiency. After the transfection, SKBR3, HT-29 and MDA-MB-468 have been incubated with 3 μM ADR over 24 hours. Cells have been washed with cold PBS and re-suspended in lysis buffer (Promega) and incubated for 10 min at room temp. Insoluble material has been centrifuged and luciferase activity has been determined using a commercial kit with a luminometer (Turner).

## FQQSSTAKSATW (p73 SIMP (aa 131-142)) [SIMP1]
[1]
  reaction with GST-p53 fusion proteins (dot blot, anti-p53 DO1): no reaction was observed
[2]
  disruption of m-p53 His-273/p73 protein complex (p73 bound m-p53 amount): suitable to disrupt m-p53/p73 complexes in tumour cells containing his-273 mutation; also recorded: disrupt selectively m-p53/p73 complex
[2]; listed as SIMPI
  disruption of m-p53 His-273/p73 protein complex (p73 bound m-p53 amount): disrupts mutated p53/p73 protein complex; also recorded: largely reduced
[3]
  cell proliferation in vitro: reduce the cell proliferation in vitro
[4]
  specificity for p53 mutation type: display specificity for His-273 mutation containing tumours
[5]
  apoptotic response: increase the apoptotic response to chemotherapeutic agents
[5]; listed as SIMPI
  apoptotic response: increases the apoptotic response
[6]
  sensitivity to Adriamycin: made the same more sensitive to the treatment with Adriamycin
